How the values were obtained:
Test in all cases: relative viability (nuclei count vs DMSO), 5 days (fraction); higher = more cells survive
[1] = tested on: NCI-H322M
In short: (§1)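 Dosing by pin tool came one day after lung cancer cell lines were seeded in 1536-well plates, using either one drug or a fixed anchor-drug dose plus five library-drug doses (not always all listed) in √10 steps. After 5 days, nuclei were counted on 4× images. Relative viability is treated-well nuclei count divided by vehicle-well nuclei count, and values are medians of duplicate plates.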

[2] = tested on: HCC-827
In short: as §1

[3] = tested on: NCI-H1792
In short: as §1

[4] = tested on: CAL-12T
In short: as §1

[5] = tested on: HCC-44
In short: as §1

[6] = tested on: LXF-289
In short: as §1

[7] = tested on: NCI-H520
In short: as §1

[8] = tested on: NCI-H1944
In short: as §1

[9] = tested on: NCI-H1666
In short: as §1

[10] = tested on: NCI-H1395
In short: as §1

[11] = tested on: LCLC-103H
In short: as §1

[12] = tested on: NCI-H358
In short: as §1

[13] = tested on: NCI-H1755
In short: as §1

[14] = tested on: RERF-LC-KJ
In short: as §1

[15] = tested on: LU99A
In short: as §1

[16] = tested on: NCI-H3122
In short: as §1

[17] = tested on: NCI-H1793
In short: as §1

[18] = tested on: ABC-1
In short: as §1

[19] = tested on: NCI-H2347
In short: as §1

[20] = tested on: NCI-H2126
In short: as §1

[21] = tested on: SK-LU-1
In short: as §1

Compound: CCNC(=O)c1noc(-c2cc(C(C)C)c(O)cc2O)c1-c1ccc(CN2CCOCC2)cc1 [Luminespib] + Cc1nc(NC(=O)N2CCC[C@H]2C(N)=O)sc1-c1ccnc(C(C)(C)C(F)(F)F)c1 [Alpelisib] (partner 2 µM)
- relative viability ([1]; first compound 0.002 µM): 0.774
- relative viability ([1]; first compound 0.006325 µM): 0.711
- relative viability ([1]; first compound 0.02 µM): 0.588
- relative viability ([1]; first compound 0.06325 µM): 0.751
- relative viability ([1]; first compound 0.2 µM): 0.807
- relative viability ([2]; first compound 0.002 µM): 1
- relative viability ([2]; first compound 0.006325 µM): 0.981
- relative viability ([2]; first compound 0.02 µM): 0.849
- relative viability ([2]; first compound 0.06325 µM): 0.976
- relative viability ([2]; first compound 0.2 µM): 0.931
- relative viability ([3]; first compound 0.002 µM): 0.595
- relative viability ([3]; first compound 0.006325 µM): 0.621
- relative viability ([3]; first compound 0.02 µM): 0.355
- relative viability ([3]; first compound 0.06325 µM): 0.308
- relative viability ([3]; first compound 0.2 µM): 0.1
- relative viability ([4]; first compound 0.002 µM): 1.21
- relative viability ([4]; first compound 0.006325 µM): 1.25
- relative viability ([4]; first compound 0.02 µM): 1.02
- relative viability ([4]; first compound 0.06325 µM): 0.192
- relative viability ([4]; first compound 0.2 µM): 0.0844
- relative viability ([5]; first compound 0.002 µM): 0.82
- relative viability ([5]; first compound 0.006325 µM): 0.886
- relative viability ([5]; first compound 0.02 µM): 0.851
- relative viability ([5]; first compound 0.06325 µM): 0.152
- relative viability ([5]; first compound 0.2 µM): 0.154
- relative viability ([6]; first compound 0.002 µM): 1.03
- relative viability ([6]; first compound 0.006325 µM): 0.97
- relative viability ([6]; first compound 0.02 µM): 1.09
- relative viability ([6]; first compound 0.06325 µM): 0.52
- relative viability ([6]; first compound 0.2 µM): 0.161
- relative viability ([7]; first compound 0.002 µM): 0.916
- relative viability ([7]; first compound 0.006325 µM): 0.875
- relative viability ([7]; first compound 0.02 µM): 1.01
- relative viability ([7]; first compound 0.06325 µM): 0.131
- relative viability ([7]; first compound 0.2 µM): 0.15
- relative viability ([8]; first compound 0.002 µM): 0.861
- relative viability ([8]; first compound 0.006325 µM): 0.826
- relative viability ([8]; first compound 0.02 µM): 0.539
- relative viability ([8]; first compound 0.06325 µM): 0.755
- relative viability ([8]; first compound 0.2 µM): 0.781
- relative viability ([9]; first compound 0.002 µM): 1
- relative viability ([9]; first compound 0.006325 µM): 1.01
- relative viability ([9]; first compound 0.02 µM): 0.985
- relative viability ([9]; first compound 0.06325 µM): 1.01
- relative viability ([9]; first compound 0.2 µM): 0.795
- relative viability ([10]; first compound 0.002 µM): 1.37
- relative viability ([10]; first compound 0.006325 µM): 1.03
- relative viability ([10]; first compound 0.02 µM): 1.17
- relative viability ([10]; first compound 0.06325 µM): 0.469
- relative viability ([10]; first compound 0.2 µM): 0.349
- relative viability ([11]; first compound 0.002 µM): 0.969
- relative viability ([11]; first compound 0.006325 µM): 1.01
- relative viability ([11]; first compound 0.02 µM): 0.85
- relative viability ([11]; first compound 0.06325 µM): 0.928
- relative viability ([11]; first compound 0.2 µM): 1
- relative viability ([12]; first compound 0.002 µM): 0.841
- relative viability ([12]; first compound 0.006325 µM): 0.76
- relative viability ([12]; first compound 0.02 µM): 0.635
- relative viability ([12]; first compound 0.06325 µM): 0.117
- relative viability ([12]; first compound 0.2 µM): 0.128
- relative viability ([13]; first compound 0.002 µM): 0.972
- relative viability ([13]; first compound 0.006325 µM): 0.887
- relative viability ([13]; first compound 0.02 µM): 0.823
- relative viability ([13]; first compound 0.06325 µM): 0.905
- relative viability ([13]; first compound 0.2 µM): 0.561
- relative viability ([14]; first compound 0.002 µM): 0.813
- relative viability ([14]; first compound 0.006325 µM): 0.894
- relative viability ([14]; first compound 0.02 µM): 0.51
- relative viability ([14]; first compound 0.06325 µM): 0.541
- relative viability ([14]; first compound 0.2 µM): 0.242
- relative viability ([15]; first compound 0.002 µM): 0.534
- relative viability ([15]; first compound 0.006325 µM): 0.526
- relative viability ([15]; first compound 0.02 µM): 0.311
- relative viability ([15]; first compound 0.06325 µM): 0.11
- relative viability ([15]; first compound 0.2 µM): 0.0992
- relative viability ([16]; first compound 0.002 µM): 0.756
- relative viability ([16]; first compound 0.006325 µM): 0.672
- relative viability ([16]; first compound 0.02 µM): 0.648
- relative viability ([16]; first compound 0.06325 µM): 0.179
- relative viability ([16]; first compound 0.2 µM): 0.149
- relative viability ([17]; first compound 0.002 µM): 0.806
- relative viability ([17]; first compound 0.006325 µM): 0.536
- relative viability ([17]; first compound 0.02 µM): 0.319
- relative viability ([17]; first compound 0.06325 µM): 0.212
- relative viability ([17]; first compound 0.2 µM): 0.165
- relative viability ([18]; first compound 0.002 µM): 0.976
- relative viability ([18]; first compound 0.006325 µM): 0.95
- relative viability ([18]; first compound 0.02 µM): 1.15
- relative viability ([18]; first compound 0.06325 µM): 0.392
- relative viability ([18]; first compound 0.2 µM): 0.3
- relative viability ([19]; first compound 0.002 µM): 1.14
- relative viability ([19]; first compound 0.02 µM): 0.779
- relative viability ([19]; first compound 0.06325 µM): 0.936
- relative viability ([19]; first compound 0.2 µM): 0.382
- relative viability ([20]; first compound 0.002 µM): 0.739
- relative viability ([20]; first compound 0.006325 µM): 0.727
- relative viability ([20]; first compound 0.02 µM): 0.538
- relative viability ([20]; first compound 0.06325 µM): 0.748
- relative viability ([20]; first compound 0.2 µM): 0.838
- relative viability ([21]; first compound 0.002 µM): 1.33
- relative viability ([21]; first compound 0.006325 µM): 0.7
- relative viability ([21]; first compound 0.02 µM): 0.305
- relative viability ([21]; first compound 0.06325 µM): 0.18
- relative viability ([21]; first compound 0.2 µM): 0.161

Source: the supplement of paper PMC10307832
